From PubChem BioAssay (NCI)
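All cell lines were grown in 96-well plates and treated with compound for 48 hours. The concentration for full growth arrest is given as TGI.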

Columns and labels:
Experiment in all cases: NCI tumour cell line growth inhibition, 48 h
IGROV1 ovarian = tested on: IGROV1 ovarian
SF-295 CNS = tested on: SF-295 CNS
SK-MEL-28 melanoma = tested on: SK-MEL-28 melanoma
RPMI-8226 leukemia = tested on: RPMI-8226 leukemia
OVCAR-5 ovarian = tested on: OVCAR-5 ovarian
SK-MEL-2 melanoma = tested on: SK-MEL-2 melanoma
MOLT-4 leukemia = tested on: MOLT-4 leukemia
SW-620 colon = tested on: SW-620 colon
SNB-75 CNS = tested on: SNB-75 CNS
UACC-257 melanoma = tested on: UACC-257 melanoma
M14 melanoma = tested on: M14 melanoma
NCI-H23 lung = tested on: NCI-H23 lung
NCI-H460 lung = tested on: NCI-H460 lung
HCT-116 colon = tested on: HCT-116 colon
CCRF-CEM leukemia = tested on: CCRF-CEM leukemia
SF-539 CNS = tested on: SF-539 CNS
DMS 114 small cell lung = tested on: DMS 114 small cell lung
MALME-3M melanoma = tested on: MALME-3M melanoma
OVCAR-8 ovarian = tested on: OVCAR-8 ovarian
K-562 leukemia = tested on: K-562 leukemia
HL-60(TB) leukemia = tested on: HL-60(TB) leukemia
RXF-631 renal = tested on: RXF-631 renal
RXF 393 renal = tested on: RXF 393 renal
XF 498 CNS = tested on: XF 498 CNS
TK-10 renal = tested on: TK-10 renal
OVCAR-4 ovarian = tested on: OVCAR-4 ovarian
UACC-62 melanoma = tested on: UACC-62 melanoma
NCI-H226 lung = tested on: NCI-H226 lung
OVCAR-3 ovarian = tested on: OVCAR-3 ovarian
SNB-78 CNS = tested on: SNB-78 CNS
SK-MEL-5 melanoma = tested on: SK-MEL-5 melanoma
EKVX NSCLC = tested on: EKVX NSCLC
HOP-92 NSCLC = tested on: HOP-92 NSCLC
DLD-1 colon = tested on: DLD-1 colon
LOX IMVI melanoma = tested on: LOX IMVI melanoma
HCT-15 colon = tested on: HCT-15 colon
HCC-2998 colon = tested on: HCC-2998 colon
ACHN renal = tested on: ACHN renal
SN12C renal = tested on: SN12C renal
SR leukemia = tested on: SR leukemia
UO-31 renal = tested on: UO-31 renal
A549 NSCLC = tested on: A549 NSCLC
CAKI-1 renal = tested on: CAKI-1 renal
SF-268 CNS = tested on: SF-268 CNS
A498 renal = tested on: A498 renal
U251 CNS = tested on: U251 CNS
KM20L2 colon = tested on: KM20L2 colon
M19-MEL melanoma = tested on: M19-MEL melanoma
HT29 colon = tested on: HT29 colon
SNB-19 CNS = tested on: SNB-19 CNS
786-0 renal = tested on: 786-0 renal
LXFL 529 NSCLC = tested on: LXFL 529 NSCLC
DMS 273 small cell lung = tested on: DMS 273 small cell lung
COLO 205 colon = tested on: COLO 205 colon
SK-OV-3 ovarian = tested on: SK-OV-3 ovarian
HOP-62 NSCLC = tested on: HOP-62 NSCLC
KM12 colon = tested on: KM12 colon
NCI-H522 lung = tested on: NCI-H522 lung
HOP-18 NSCLC = tested on: HOP-18 NSCLC

O=C(CC1C(=O)Nc2ccccc2S1(=O)=O)Nc1cc(Cl)ccc1Cl (stereo not given)
TGI (IGROV1 ovarian): 26.9 µM
TGI (SF-295 CNS): 34.4 µM
TGI (SK-MEL-28 melanoma): 41 µM
TGI (RPMI-8226 leukemia): 13.4 µM
TGI (OVCAR-5 ovarian): 71.1 µM
TGI (SK-MEL-2 melanoma): 35.4 µM
TGI (MOLT-4 leukemia): 23.2 µM
TGI (SW-620 colon): 40.2 µM
TGI (SNB-75 CNS): 31 µM
TGI (UACC-257 melanoma): > 100 µM
TGI (M14 melanoma): 30.6 µM
TGI (NCI-H23 lung): 40.4 µM
TGI (NCI-H460 lung): 30.3 µM
TGI (HCT-116 colon): 28 µM
TGI (CCRF-CEM leukemia): 62.5 µM
TGI (SF-539 CNS): 7.23 µM
TGI (DMS 114 small cell lung): 27 µM
TGI (MALME-3M melanoma): 40.6 µM
TGI (OVCAR-8 ovarian): 41.9 µM
TGI (K-562 leukemia): 42 µM
TGI (HL-60(TB) leukemia): 35.3 µM
TGI (RXF-631 renal): 88.9 µM
TGI (RXF 393 renal): 32.7 µM
TGI (XF 498 CNS): 27.6 µM
TGI (TK-10 renal): 39.9 µM
TGI (OVCAR-4 ovarian): 32.8 µM
TGI (UACC-62 melanoma): 33.7 µM
TGI (NCI-H226 lung): 35.8 µM
TGI (OVCAR-3 ovarian): 29 µM
TGI (SNB-78 CNS): 33.6 µM
TGI (SK-MEL-5 melanoma): 30.3 µM
TGI (EKVX NSCLC): 30 µM
TGI (HOP-92 NSCLC): 30.4 µM
TGI (DLD-1 colon): 33.4 µM
TGI (LOX IMVI melanoma): 18.1 µM
TGI (HCT-15 colon): 27.5 µM
TGI (HCC-2998 colon): 36.2 µM
TGI (ACHN renal): 35.7 µM
TGI (SN12C renal): 30.2 µM
TGI (SR leukemia): 24.3 µM
TGI (UO-31 renal): 31 µM
TGI (A549 NSCLC): 33.1 µM
TGI (CAKI-1 renal): 32 µM
TGI (SF-268 CNS): 24.4 µM
TGI (A498 renal): 31.4 µM
TGI (U251 CNS): 22.6 µM
TGI (KM20L2 colon): 32.6 µM
TGI (M19-MEL melanoma): 34.1 µM
TGI (HT29 colon): 34.3 µM
TGI (SNB-19 CNS): 29.8 µM
TGI (786-0 renal): 20.7 µM
TGI (LXFL 529 NSCLC): 27.1 µM

CC(C)C(N=c1c2ccccc2n(O)c2ccccc12)C(=O)O (stereo not given)
TGI (IGROV1 ovarian): > 100 µM
TGI (SF-295 CNS): > 100 µM
TGI (SK-MEL-28 melanoma): > 100 µM
TGI (RPMI-8226 leukemia): > 100 µM
TGI (OVCAR-5 ovarian): > 100 µM
TGI (SK-MEL-2 melanoma): > 100 µM
TGI (DMS 273 small cell lung): > 100 µM
TGI (COLO 205 colon): > 100 µM
TGI (SW-620 colon): > 100 µM
TGI (SNB-75 CNS): > 100 µM
TGI (UACC-257 melanoma): > 100 µM
TGI (M14 melanoma): > 100 µM
TGI (NCI-H23 lung): > 100 µM
TGI (NCI-H460 lung): > 100 µM
TGI (HCT-116 colon): > 100 µM
TGI (CCRF-CEM leukemia): > 100 µM
TGI (DMS 114 small cell lung): > 100 µM
TGI (MALME-3M melanoma): > 100 µM
TGI (OVCAR-8 ovarian): > 100 µM
TGI (K-562 leukemia): > 100 µM
TGI (SK-OV-3 ovarian): > 100 µM
TGI (HL-60(TB) leukemia): > 100 µM
TGI (RXF-631 renal): > 100 µM
TGI (TK-10 renal): > 100 µM
TGI (OVCAR-4 ovarian): > 100 µM
TGI (HOP-62 NSCLC): > 100 µM
TGI (UACC-62 melanoma): > 100 µM
TGI (NCI-H226 lung): > 100 µM
TGI (OVCAR-3 ovarian): > 100 µM
TGI (SNB-78 CNS): > 100 µM
TGI (SK-MEL-5 melanoma): > 100 µM
TGI (EKVX NSCLC): > 100 µM
TGI (KM12 colon): > 100 µM
TGI (DLD-1 colon): > 100 µM
TGI (LOX IMVI melanoma): > 100 µM
TGI (HCT-15 colon): > 100 µM
TGI (HCC-2998 colon): > 100 µM
TGI (NCI-H522 lung): > 100 µM
TGI (ACHN renal): > 100 µM
TGI (SN12C renal): > 100 µM
TGI (UO-31 renal): > 100 µM
TGI (A549 NSCLC): > 100 µM
TGI (CAKI-1 renal): > 100 µM
TGI (SF-268 CNS): > 100 µM
TGI (A498 renal): > 100 µM
TGI (U251 CNS): > 100 µM
TGI (KM20L2 colon): > 100 µM
TGI (HOP-18 NSCLC): > 100 µM
TGI (M19-MEL melanoma): > 100 µM
TGI (HT29 colon): > 100 µM
TGI (SNB-19 CNS): > 100 µM
TGI (786-0 renal): > 100 µM
TGI (LXFL 529 NSCLC): > 100 µM

O=C(Cc1nc(-c2ccccc2)cc(=O)n1-c1ccccc1Cl)c1ccncc1
TGI (IGROV1 ovarian): > 100 µM
TGI (SF-295 CNS): > 100 µM
TGI (SK-MEL-28 melanoma): > 100 µM
TGI (OVCAR-5 ovarian): > 100 µM
TGI (SK-MEL-2 melanoma): > 100 µM
TGI (DMS 273 small cell lung): > 100 µM
TGI (COLO 205 colon): > 100 µM
TGI (SW-620 colon): > 100 µM
TGI (SNB-75 CNS): 82.6 µM
TGI (UACC-257 melanoma): > 100 µM
TGI (M14 melanoma): > 100 µM
TGI (NCI-H23 lung): > 100 µM
TGI (NCI-H460 lung): > 100 µM
TGI (HCT-116 colon): > 100 µM
TGI (CCRF-CEM leukemia): > 100 µM
TGI (SF-539 CNS): > 100 µM
TGI (DMS 114 small cell lung): > 100 µM
TGI (MALME-3M melanoma): > 100 µM
TGI (OVCAR-8 ovarian): > 100 µM
TGI (K-562 leukemia): > 100 µM
TGI (SK-OV-3 ovarian): > 100 µM
TGI (HL-60(TB) leukemia): > 100 µM
TGI (RXF-631 renal): > 100 µM
TGI (RXF 393 renal): > 100 µM
TGI (TK-10 renal): > 100 µM
TGI (OVCAR-4 ovarian): > 100 µM
TGI (HOP-62 NSCLC): > 100 µM
TGI (UACC-62 melanoma): > 100 µM
TGI (NCI-H226 lung): > 100 µM
TGI (OVCAR-3 ovarian): > 100 µM
TGI (SNB-78 CNS): > 100 µM
TGI (SK-MEL-5 melanoma): > 100 µM
TGI (EKVX NSCLC): > 100 µM
TGI (KM12 colon): > 100 µM
TGI (HOP-92 NSCLC): > 100 µM
TGI (DLD-1 colon): > 100 µM
TGI (LOX IMVI melanoma): > 100 µM
TGI (HCT-15 colon): > 100 µM
TGI (HCC-2998 colon): > 100 µM
TGI (NCI-H522 lung): > 100 µM
TGI (ACHN renal): > 100 µM
TGI (SN12C renal): > 100 µM
TGI (UO-31 renal): > 100 µM
TGI (A549 NSCLC): > 100 µM
TGI (CAKI-1 renal): > 100 µM
TGI (SF-268 CNS): > 100 µM
TGI (A498 renal): > 100 µM
TGI (U251 CNS): > 100 µM
TGI (KM20L2 colon): > 100 µM
TGI (HOP-18 NSCLC): > 100 µM
TGI (M19-MEL melanoma): > 100 µM
TGI (HT29 colon): > 100 µM
TGI (SNB-19 CNS): > 100 µM
TGI (786-0 renal): > 100 µM
TGI (LXFL 529 NSCLC): > 100 µM
